62 molecules from a melting point compilation (Tetko et al.; mined from patent text by program, amines drawn as free bases though some values may be those of a salt) can be followed below.

SMILES strings stand for the structures. Residues, ends and D or L forms follow the SMILES beside them. *: point of attachment. Boc = CC(C)(C)OC(=O)*

In general, melting point refers to the temperature, or range, at which the solid turns liquid. `CC(C)(C)c1cc(CCC(=O)NCCNc2cccc(Cl)c2C#N)cc(C(C)(C)C)c1O` came in with a melting point of 164 to 167 °C.
The value for `CNC(=O)Nc1cc2c(s1)CCCC2NC(=O)NC` (configuration not stated) was 233 to 234 °C; that for `COC(=O)c1ccc([N+](=O)[O-])cc1C` was 73.6 °C; that for `CN(C)C(=O)N1N=C2c3cc(F)ccc3OC[C@@H]2[C@@H]1c1ccccc1` (racemic) was 117 °C.
The value for `O=C(NCCCn1cncn1)c1ccc([N+](=O)[O-])o1` was 176 to 177 °C; that for `CC(C)(C)OC(=O)N1CCN(c2cccc(N)c2)CC1` was 218 °C; that for `Cc1noc(NC(=O)NCCC2CCN(Cc3ccccc3)CC2)n1` was 138 to 139 °C.
The value for `Cc1cc(C)c(C(=O)P(=O)(C(=O)c2c(C)cc(C)cc2C)c2ccccc2)c(C)c1` was 130 to 131 °C.
`CCn1c(-c2ccc(C(F)(F)F)cc2C(F)(F)F)nc(-c2ccncc2)c1-c1ccc(Cl)cc1` returned a melting point of 148 to 150 °C.
Molecule `O=C(O)c1ccc2nc(-c3ccc(F)cc3)[nH]c(=O)c2c1` came in with a melting point of 397 to 399 °C.
For `Cc1nc(Cl)c2c(C)cn(-c3c(Cl)cc(Br)cc3Br)c2n1` the value was 157 to 159 °C.
On to `CC(C)c1ccc(S(=O)(=O)c2ccccc2)cc1S(=O)(=O)NC1CCN(C(=O)c2ccccc2F)CC1`, for which the melting point fell in the range of 210 to 212 °C.
For `Cn1c(C(C)(C)C)cn(N=Cc2cccnc2)c1=O` the value was 116 to 121 °C.
For `CCOC(=O)C(Cc1cccc(OC)c1Oc1ccc([N+](=O)[O-])cc1)(NC(C)=O)C(=O)OCC` the value was 189 to 190 °C.
Molecule `C[C@@H]1[C@H](c2ccccc2)OC(=O)N1C(=O)CC1c2ccccc2C=Cc2ccccc21` had a melting point of 172 to 173 °C.
The value for `CC(C)(C)OC(=O)NCC(=O)NC(Cc1ccc(O)cc1)C(=O)NC(CCCCN)C(=O)O` (stereo not drawn) (Boc-Gly-Tyr-Lys-OH; configuration not given here) was more than 200 °C; that for `COc1nc(-n2ncc(C#N)c2N)c(Cl)cc1C(F)(F)F` was 135 to 139 °C; that for `C#CCNC(=O)c1cc(C(=O)OC)c(O)c2ncc(Cc3ccc(F)cc3)cc12` was 192 to 193 °C.
The value for `O=Cc1ccc2c(c1)S(=O)(=O)c1ccccc1N2c1ccccc1` was 260 to 272 °C.
For `Cc1cc(C)n2ncc(I)c2n1` the value was 120 to 122 °C.
In turn, `COc1cc(OC)c(CNCCc2ccc(O)cc2)cc1O` had a melting point of 170 to 173 °C.
For `O=C1O[C@@H](Cn2ccnn2)CN1c1ccc(-c2ccc(C3=NOC(C(O)c4ccccc4)C3)nc2)c(F)c1` (some centres not stated) the value was 182 °C; for `CCCCNS(=O)(=O)c1cccc(NC(=O)NS(=O)(=O)c2ccc(C)cc2)c1`, 153 °C; for `Cc1c(C)c2c(c(C)c1NC(=O)CC(C)(C)C)OCC2c1ccc(C(C)C)cc1` (configuration not stated), 214 to 215 °C.
In turn, `O=S1(=O)CC(c2ccc(F)cc2)CN1` (configuration not stated) showed a melting point of 155 °C.
As for `CC(C(=O)O)c1cccc(N)c1` (configuration not stated), the melting point is 98 to 100 °C.
The molecule `COC(=O)COc1c(Cl)cc(C(=O)CBr)cc1Cl` gave a melting point of 89 to 90 °C.
For `COc1ccccc1CNc1cccc(-c2ccnc3c(C(=O)c4cccs4)cnn23)c1` the value was 138 to 140 °C; for `COCCc1ccc(-c2ccc3c(c2)C=C(C(=O)Nc2ccc(CN(C)C4CCOCC4)cc2)CCS3(=O)=O)cc1`, 216 to 219 °C; for `CCC1(CC)NC(C)(C)CN(c2ccccc2)C1=O`, 54 to 56 °C.
The value for `COC(=O)CCC(OC(=O)Oc1ccccc1)C(=O)c1ccc(Cl)cc1` (configuration not stated) was 97 to 98 °C; that for `CC(=O)C(O)C1OC(Sc2ncc(Cl)cn2)C(O)(C(C)=O)C(O)(C(C)=O)C1(O)C(C)=O` (configuration not stated) was 172 °C; that for `CS(=O)(=O)Nc1cc2occ(C(=O)Nc3nnn[nH]3)c(=O)c2cc1Oc1ccccc1` was more than 250 °C.
For `CS(=O)c1ccc2c(c1)C(=O)C1(CC1)O2` (configuration not stated) the value was 87 to 90 °C; for `CCOC(=O)c1cn(-c2nc(NC)c(F)cc2F)c2c(Cl)c(F)c(F)cc2c1=O`, 207 to 209 °C.
The molecule `CCOC(=O)C(=O)Cc1c[nH]c2ccc(OCc3ccccc3)cc12` gave a melting point of 169 to 170 °C.
For `Nc1cc(Cl)nc(SC/C=C/C(=O)N2CCOCC2)n1` the value was 154 to 157 °C.
The value for `CC(SC1COC(c2cccc(C(=O)Nc3ccc(C#N)cc3)c2)OC1)C(O)(Cn1cncn1)c1ccc(F)cc1F` (configuration not stated) was 105 °C.
Take `O=C(Nc1ccccc1)Nc1ncc(Oc2ccc(Cl)cc2)c(N2CCOCC2)n1`: the melting point fell in the range of 229 to 231 °C.
In turn, `CC(=O)ON1C(C)(C)CC(C(N)=O)C1(C)C` (configuration not stated) showed a melting point of 150 to 151 °C.
For `Cc1cccc2sc(=O)[nH]c12` the value was 207 to 208 °C; for `Nc1ccc(S(=O)(=O)c2cc(C3=CCCCC3)nc(N3CCCC3)c2)cc1`, 237 to 238 °C.
The value for `CCOC(=O)Cc1cccc(N)c1` was 135 °C.
For `COc1ccc(Cl)cc1CC1CNC(=O)CN(S(=O)(=O)c2ccc(Cl)cc2)C1=O` (configuration not stated) the value was 110 to 112 °C; for `CC(=O)Nc1cccc(-c2c(C)c(NC(=O)CC(C)(C)C)c(C)c3c2OCC3c2ccc(C(C)C)cc2)n1` (configuration not stated), 205 to 208 °C; for `CCCc1csc(NS(=O)(=O)c2cccc(Cl)c2C)n1`, 169 °C.
For the molecule `O=c1[nH]c2cccc(OCCN3CCc4ccccc4C3)c2[nH]c1=O`, the melting point was more than 250 °C.
For `CC(C)(C)OC(=O)N1CCC2(CC1)CC(=O)N(O)C2=O` the value was 151 to 154 °C; for `Cc1cc(C(=O)Nc2cnccc2C)c2c(C)nn(-c3ccccc3)c2n1`, 227 to 228 °C; for `CCOc1cc(OCc2nc(-c3ccco3)oc2C)ccc1CCl`, 145 to 146 °C.
For `CCC(C)c1ccc(-n2c(-c3cc(C)c(OCCO)c(C)c3)nc3cc(S(C)(=O)=O)ccc3c2=O)cc1` (configuration not stated) the value was 235 to 237 °C; for `CCCCCCCCCN1C(=O)C=CC1=O`, 45 to 47 °C; for `CC(C(=O)O)c1ccc2c(c1)C(=O)Cc1cc(Cl)ccc1S2` (configuration not stated), 195 to 196 °C.
`N#Cc1ccc(N2CCN(Cc3cnc4c(c3)NC(=O)[C@@H]3CCCN43)CC2)cc1F`: the melting point is 251 to 255 °C.
The molecule `COc1ccc2c3c1OC1C(=O)C(C)CC4(OC)C(C2)N(C)CCC314` (configuration not stated) returned a melting point of 215 to 221 °C.
The value for `Cc1ccc(CC(O)(P(=O)(O)O)P(=O)(O)O)cc1` was 211 to 213 °C; that for `CCOC(=S)NCCN1CCC(Nc2nc3ccccc3n2Cc2ccc(F)cc2)CC1` was 149 °C; that for `N#CN=C(Nc1cccnc1)NC(NC(=O)c1cccc(Cl)c1)C(F)(F)C(F)(F)F` (configuration not stated) was 183 to 185 °C.
With `O=C(O)C(=O)c1ccc(OC/C=C/c2ccc3ccccc3c2)cc1`, the melting point was 142 to 143 °C.
For `CC(=O)NCC[C@@H]1CCc2ccc3nn(C)c(Br)c3c21` the value was 167 to 169 °C.
The value for `CCCNC(=O)CCCc1ccc2c(c1)c(Cc1ccc(C(=O)NS(=O)(=O)c3ccccc3C)cc1OC)cn2CCC` was 94 to 95 °C; that for `COc1ccc2cc(-c3ccc(Cl)c(-n4nc(C)nc4C)c3)c(=O)oc2c1` was 210 °C.
